The values that follow come from patent US20260224716A1, “PTH ANALOGS FOR THE TREATMENT OF HYPOPARATHYROIDISM” (priority 2020, published 2026).

The series is described as follows: Cleavage half-life / conversion of PTH prodrugs in PBS pH 7.4, 37° C. by LC-MS. It is filed as physicochemical. Conditions: for half-life: PBS buffer, dipeptide cleavage from PTH prodrug, PBS pH 7.4, 37° C., read-out: Half life (converted). The protocol: The resulting solution was incubated at 37° C. Aliquots were taken at designed time points and analyzed by LC-MS. […] Flow rate of 1 mL/min and a gradient of 10%-80% acetonitrile in water, with 0.1% trifluoroacetic acid over 10 min. […] The concentration of prodrug and drug were determined by their relative peak areas. The […] dissociation rate constant of the prodrug was determined by plotting the logarithm in the concentration of the prodrug at various time points.

In the case of `CC[C@H](C)[C@H](NC(=O)[C@H](CCC(=O)O)NC(=O)[C@H](CO)NC(=O)[C@@H](NC(=O)[C@H](CO)NC(=O)CN(C)C(=O)[C@@H](N)CCCCNC(=O)CC[C@H](NC(=O)CCCCCCCCCCCCCCCCC(=O)O)C(=O)O)C(C)C)C(=O)N[C@@H](CCC(N)=O)C(=O)N[C@@H](CC(C)C)C(=O)N[C@@H](CCSC)C(=O)N[C@@H](Cc1c[nH]cn1)C(=O)N[C@@H](CC(N)=O)C(=O)N[C@@H](CC(C)C)C(=O)NCC(=O)N[C@@H](CCCCN)C(=O)N[C@@H](Cc1c[nH]cn1)C(=O)N[C@@H](CC(C)C)C(=O)N[C@@H](CC(N)=O)C(=O)N[C@@H](CO)C(=O)N[C@@H](CCSC)C(=O)N[C@@H](CCC(=O)O)C(=O)N[C@@H](CCCNC(=N)N)C(=O)N[C@H](C(=O)N[C@@H](CCC(=O)O)C(=O)N[C@@H](Cc1c[nH]c2ccccc12)C(=O)N[C@@H](CC(C)C)C(=O)N[C@@H](CCCNC(=N)N)C(=O)N[C@@H](CCCCN)C(=O)N[C@@H](CCCCN)C(=O)N[C@@H](CC(C)C)C(=O)N[C@@H](CCC(N)=O)C(=O)N[C@@H](CC(=O)O)C(=O)N[C@H](C(=O)N[C@@H](Cc1c[nH]cn1)C(=O)N[C@@H](CC(N)=O)C(=O)N[C@@H](Cc1ccccc1)C(=O)O)C(C)C)C(C)C` [SEQ ID NO: 52], the half-life is 130 h. Besides, the “Half life, fold slower than dK (vs SEQ ID NO: 45)” value (comparator SEQ ID NO: 45) worked out at 1.4 slower than dK.
`CC[C@H](C)[C@H](NC(=O)[C@H](CCC(=O)O)NC(=O)[C@H](CO)NC(=O)[C@@H](NC(=O)[C@H](CO)NC(=O)[C@H](C)N(C)C(=O)[C@@H](N)CCCCNC(=O)CC[C@H](NC(=O)CCCCCCCCCCCCCCCCC(=O)O)C(=O)O)C(C)C)C(=O)N[C@@H](CCC(N)=O)C(=O)N[C@@H](CC(C)C)C(=O)N[C@@H](CCSC)C(=O)N[C@@H](Cc1c[nH]cn1)C(=O)N[C@@H](CC(N)=O)C(=O)N[C@@H](CC(C)C)C(=O)NCC(=O)N[C@@H](CCCCN)C(=O)N[C@@H](Cc1c[nH]cn1)C(=O)N[C@@H](CC(C)C)C(=O)N[C@@H](CC(N)=O)C(=O)N[C@@H](CO)C(=O)N[C@@H](CCSC)C(=O)N[C@@H](CCC(=O)O)C(=O)N[C@@H](CCCNC(=N)N)C(=O)N[C@H](C(=O)N[C@@H](CCC(=O)O)C(=O)N[C@@H](Cc1c[nH]c2ccccc12)C(=O)N[C@@H](CC(C)C)C(=O)N[C@@H](CCCNC(=N)N)C(=O)N[C@@H](CCCCN)C(=O)N[C@@H](CCCCN)C(=O)N[C@@H](CC(C)C)C(=O)N[C@@H](CCC(N)=O)C(=O)N[C@@H](CC(=O)O)C(=O)N[C@H](C(=O)N[C@@H](Cc1c[nH]cn1)C(=O)N[C@@H](CC(N)=O)C(=O)N[C@@H](Cc1ccccc1)C(=O)O)C(C)C)C(C)C` [SEQ ID NO: 53]: the half-life is 71 h. Under “comparator SEQ ID NO: 52”, the “Half life, fold faster than Sar (vs SEQ ID NO: 52)” value is 1.8 faster than Sar.
Regarding `CC[C@H](C)[C@H](NC(=O)[C@H](CCC(=O)O)NC(=O)[C@H](CO)NC(=O)[C@@H](NC(=O)[C@H](CO)NC(=O)CN(C(=O)[C@H](N)CCCCNC(=O)CC[C@H](NC(=O)CCCCCCCCCCCCCCCCC(=O)O)C(=O)O)C(C)C)C(C)C)C(=O)N[C@@H](CCC(N)=O)C(=O)N[C@@H](CC(C)C)C(=O)N[C@@H](CCSC)C(=O)N[C@@H](Cc1c[nH]cn1)C(=O)N[C@@H](CC(N)=O)C(=O)N[C@@H](CC(C)C)C(=O)NCC(=O)N[C@@H](CCCCN)C(=O)N[C@@H](Cc1c[nH]cn1)C(=O)N[C@@H](CC(C)C)C(=O)N[C@@H](CC(N)=O)C(=O)N[C@@H](CO)C(=O)N[C@@H](CCSC)C(=O)N[C@@H](CCC(=O)O)C(=O)N[C@@H](CCCNC(=N)N)C(=O)N[C@H](C(=O)N[C@@H](CCC(=O)O)C(=O)N[C@@H](Cc1c[nH]c2ccccc12)C(=O)N[C@@H](CC(C)C)C(=O)N[C@@H](CCCNC(=N)N)C(=O)N[C@@H](CCCCN)C(=O)N[C@@H](CCCCN)C(=O)N[C@@H](CC(C)C)C(=O)N[C@@H](CCC(N)=O)C(=O)N[C@@H](CC(=O)O)C(=O)N[C@H](C(=O)N[C@@H](Cc1c[nH]cn1)C(=O)N[C@@H](CC(N)=O)C(=O)N[C@@H](Cc1ccccc1)C(=O)O)C(C)C)C(C)C` [SEQ ID NO: 46], the half-life was 47 h. Moreover, the “Half life, fold faster (vs SEQ ID NO: 45)” value (comparator SEQ ID NO: 45) turned out to be 1.9 faster than Sar.
